Literature values, collected in US20070059360A1, “WATER-DISPERSIBLE ANTI-RETROVIRAL PHARMACEUTICAL COMPOSITIONS” (priority 2005, published 2007).

Target: HIV reverse transcriptase (Human immunodeficiency virus type 1 group M subtype B, UniProt P04585)
Details: in vitro; reported by S. A. Riddler, et al

In the case of `Cc1cn([C@H]2C=C[C@@H](CO)O2)c(=O)[nH]c1=O` [Stavudine, 2′,3′-didehydro-3′-deoxythymidine], the “Inhibition of HIV reverse transcriptase” value is listed as “potent inhibitor”.
